Results published in article PMC9598531 (Biology, 2022).
Read-outs that look alike come from different tables or passages of the source.

Experiments:
KMO [1] = conditions: KMO inhibitor; cited from earlier work
human KMO [2] = biological target: T1, human KMO (Homo sapiens, UniProt O15229); experiment: KMO enzyme activity (inhibitor screening kit) assay; type: biochemical; parameters: purchased BPS Bioscience; conditions: for inhibition at 100 µM: read-out: % inhibition of KMO enzyme activity; for IC50: human KMO enzyme
Protocol: The enzymatic assay was performed in duplicate. Ro 61-8048 was used as the positive control. The test compounds were dissolved in DMSO at 100 mM and diluted to 1 mM in assay buffer. A reaction mixture of assay buffer (50 μL), human KMO (20 μg/mL; 50 μL), test compounds (1 mM; 10 μL), and substrate (40 μL NADPH (10 mM) plus L-Kyn (20 mM)) were incubated in a 96-well plate at room temperature for 1.5 h. The absorbance was recorded at 340 nm. The enzyme activity was expressed as % activity as follows: % Activity=[(Abssample−Absblank)/(Abscontrol−Absblank)]×100
% Inhibition was calculated by subtracting the % activity from 100%.

human KMO [3] = biological target: T1, human KMO; experiment: SPR binding assay (Biacore T200); parameters: purchased Cosmo Bio USA; conditions: for Kon: association rate; for Kd: dissociation constant
Protocol: The protein was manually immobilized on a Series S Sensor Chip CM5 based on an amine coupling method with minor modification. An SPR assay was conducted on the Biacore T200 SPR instrument (Cytiva; Marlborough, MA, USA). […] Ro 61-8048 stock solution (6 mM; dissolved in DMSO) was diluted into a series of concentrations ranging from 1.25 to 20 μM in the running buffer.

human KMO [4] = biological target: T1, human KMO; experiment: KMO enzyme activity (inhibitor screening kit) assay; type: biochemical; parameters: purchased BPS Bioscience; conditions: read-out: % inhibition of KMO
human KMO [5] = biological target: T1, human KMO; experiment: Competitive SPR binding assay; conditions: for Experimental RU: CFA 75 μM, Ro 61-8048 5 μM, alone or combined
Protocol: HBS-P+ (20 mM; 0.02 M HEPES, 0.3 M NaCl, 0.1% v/v surfactant P20; pH 7.4) containing 3% DMSO was used as the running buffer. […] Ro 61-8048 was prepared as a final concentration of 5 μM in running buffer. […] FO(A)=1/1+KDA/CA(1+CB/KDB);FO(B)=1/1+KDB/CB(1+CA/KDA) where CA and CB are the respective concentrations of both binders, and KDA and KDB represent the equilibrium dissociation constants of the binders. The FO values were used to calculate the theoretical RU representative of competing compounds using the following equation [23]: Robserved=FO(A)·Rmax(A)+FO(B)·Rmax(B)

KMO [6] = test system: KMO; parameters: method as in PMID 28464785; conditions: rat liver and kidney homogenates in vitro; cited from earlier work
[7] = parameters: method as in PMID 21640374; conditions: cited from earlier work

T1 sequence (O15229 whole entry): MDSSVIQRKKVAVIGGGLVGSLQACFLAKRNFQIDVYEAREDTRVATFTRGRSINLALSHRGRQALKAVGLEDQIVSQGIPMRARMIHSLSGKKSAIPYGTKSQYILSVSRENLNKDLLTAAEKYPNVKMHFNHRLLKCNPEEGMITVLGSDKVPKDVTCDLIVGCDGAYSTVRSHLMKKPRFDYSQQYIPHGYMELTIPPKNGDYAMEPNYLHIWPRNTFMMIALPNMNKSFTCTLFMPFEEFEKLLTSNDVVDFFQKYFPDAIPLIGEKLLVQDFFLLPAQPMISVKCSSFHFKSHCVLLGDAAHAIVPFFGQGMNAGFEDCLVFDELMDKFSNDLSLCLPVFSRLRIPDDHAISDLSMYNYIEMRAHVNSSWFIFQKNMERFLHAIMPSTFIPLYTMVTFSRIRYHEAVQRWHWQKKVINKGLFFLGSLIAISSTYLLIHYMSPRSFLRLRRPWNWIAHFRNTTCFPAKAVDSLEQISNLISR

In the case of `NC(CC(=O)c1cccc([N+](=O)[O-])c1)C(=O)O` (stereo not drawn), the IC50 (KMO [1]) is given as 0.9 µM.

With `CCCCCc1cc(O)c2c(c1)OC(C)(CCC=C(C)C)C=C2` (stereo not drawn) [CBC, cannabichromene] the inhibition at 100 µM (human KMO [2]) was 0%.

`C=C(C)[C@@H]1CCC(C)=C[C@H]1c1c(O)cc(CCCCC)cc1O` [CBD, cannabidiol, reference compound] gave an inhibition at 100 µM (human KMO [2]) of 6%.

With `C=C(C)[C@@H]1CCC(C)=C[C@H]1c1c(O)cc(CCC)cc1O` [CBDV, cannabidivarin] the inhibition at 100 µM (human KMO [2]) was 0%.

For `CCCCCc1cc(O)c(C/C=C(\C)CCC=C(C)C)c(O)c1` [CBG, cannabigerol], the inhibition at 100 µM (human KMO [2]) was 1%.

With `CCCCCc1cc(O)c(C/C=C(\C)CCC=C(C)C)c(O)c1C(=O)O` [CBGA, cannabigerolic acid] the inhibition at 100 µM (human KMO [2]) was 1%.

In the case of `CCCCCc1cc(O)c2c(c1)OC(C)(C)c1ccc(C)cc1-2` [CBN, cannabinol], the inhibition at 100 µM (human KMO [2]) is reported as 0%.

In the case of `CCCCCc1cc(O)c2c(c1)OC(C)(C)C1=C2C(O)C(C)(O)CC1` (stereo not drawn) [CBT, cannabitriol], the “% inhibition of KMO enzyme activity” value (human KMO [2]; at 100 μM) is reported as 11%.

In the case of `COc1cc(-c2cc(=O)c3c(O)c(C/C=C(\C)CCC=C(C)C)c(O)cc3o2)ccc1O` [CFA, cannflavin A], the IC50 (human KMO [2]) is reported as 29.4 µM, the inhibition at 100 µM (human KMO [2]) is reported as 99% and the Kon (human KMO [3]; SPR) is reported as 0.3 ×10^3, 1/Ms. The Kd (human KMO [3]; SPR) was 41 µM, the Koff (human KMO [3]; SPR, dissociation rate) was 14.2 ×10^−3, 1/s and the kon (human KMO [3]; SPR, read-out: association rate) was 300 M⁻¹ s⁻¹. The Koff (human KMO [3]; SPR, read-out: dissociation rate) was 0.0142 s⁻¹, the “binding response unit (RU)” value (human KMO [3]; at 10 μM) was 5.6 RU and the “binding response unit (RU)” value (human KMO [3]; at 19 μM) was 10.4 RU. For the same compound, the “binding response unit (RU)” value (human KMO [3]; at 38 μM) was 17.9 RU, the “binding response unit (RU)” value (human KMO [3]; at 150 μM) was 35.7 RU and the “binding response unit (RU)” value (human KMO [3]; at 300 μM) was 40.7 RU. The inhibition at 2.5 µM (human KMO [4]) was 8.5%, the inhibition at 5 µM (human KMO [4]) was 15% and the inhibition at 20 µM (human KMO [4]) was 38%. For the same compound, the inhibition at 40 µM (human KMO [4]) was 59%, the “Experimental RU” value (human KMO [5]) was 27 RU and the “binding mode of CFA and Ro 61-8048 to the KMO protein” value (human KMO [5]; competitive SPR analysis) was “competitive, rather than non-competitive binding”.

For `COc1ccc(S(=O)(=O)Nc2nc(-c3cccc([N+](=O)[O-])c3)cs2)cc1OC` [Ro 61-8048, 3,4-Dimethoxy-[-N-4-(Nitrophenyl)Thiazol-2YL]-Benzenesulfonamide, reference compound], the IC50 (human KMO [2]) was 5.1 µM, the Kon (human KMO [3]; SPR) was 3.7 ×10^3, 1/Ms and the Kd (human KMO [3]; SPR) was 11 µM. For the same compound, the Koff (human KMO [3]; SPR, dissociation rate) was 38.5 ×10^−3, 1/s, the “binding response unit (RU)” value (human KMO [3]; at 1 μM) was 1.48 RU and the “binding response unit (RU)” value (human KMO [3]; at 3 μM) was 2.99 RU. For the same compound, the “binding response unit (RU)” value (human KMO [3]; at 10 μM) was 13.4 RU, the “binding response unit (RU)” value (human KMO [3]; at 20 μM) was 27.0 RU and the IC50 (KMO [6]) was 0.037 µM. The “crossing of the blood brain barrier” value [7] was “cannot cross the blood brain barrier” and the “Experimental RU” value (human KMO [5]) was 19 RU.

For `O=C(O)[C@H]1C[C@@H]1C(=O)c1ccc(Cl)c(Cl)c1` [UPF-648], the IC50 (KMO [1]) is given as 0.04 µM.

In the case of `CCCCCc1cc(O)c2c(c1)OC(C)(C)[C@@H]1CC=C(C)C[C@@H]21` [Δ^8 THC, delta-8-Tetrahydrocannabinol], the inhibition at 100 µM (human KMO [2]) is reported as 1%.
